Reference: patent US20180177724A1, “SITE-TARGETED NANO-LIPOSOMAL NITROGLYCERIN THERAPEUTICS” (The Regents of the University of California, priority 2015, published 2018)
Like-named read-outs stand apart in the source and are kept apart here.

How the values were obtained:
[1] = system: endothelial ICAM-1 clustering; test: ICAM-1 clustering in U937 cell-EC co-cultures; assay type: cell-based, human; settings: NTG 5 μM
Procedure: ECs were grown to confluence on glass coverslips under normal growth conditions and treated with L-NIO (5 mM)±[NTG (5 μM) or NTG-NL (5 μg/mL)] for 24 h. Next, a monocyte adhesion assay was performed (as described earlier) and the monocyte-EC co-cultures fixed, permeabilized with 0.1% Triton X-100, blocked with 2% bovine serum albumin (BSA; Millipore, USA), and sequentially incubated with primary anti-ICAM-1 mouse antibody (Santa Cruz Biotechnology, USA) and secondary FITC-conjugated DyLight 488 anti-mouse IgG (Vector Labs, USA). To visualize actin microfilaments, monocyte-EC co-cultures were incubated with Alexa Fluor 594-Phalloidin (BD Biosciences, USA). Coverslips were mounted onto glass slides and fluorescence images (15 per condition) were taken using a Nikon Eclipse Ti microscope fitted with a Nikon Digital Sight DS-Qi1Mc camera. ICAM-1 clustering index was determined using ImageJ by normalizing the total monocyte fluorescence (from at least 30 cells) to the background of the surrounding EC cytoplasm.

[2] = system: U937 monocytic cell adhesion to L-NIO-treated ECs; test: Monocyte adhesion assay, L-NIO-treated (NO-deficient) ECs; assay type: cell-based, human; settings: for U937 cell-EC adhesion after 4 hr treatment: L-NIO
Procedure: Human microvascular endothelial cells (HMEC-1) were purchased from the Center for Disease Control (CDC) and cultured on gelatin-coated tissue culture dishes in growth medium composed of MCDB-131 (VWR International, USA) supplemented with 10% FBS (Fisherbrand, USA), 2 mM L-Glutamine (Invitrogen, USA), 1× antimycotic/antibiotic mixture (Life Technologies, USA), 10 ng/mL huEGF (Millipore, USA) and 1 μg/mL Hydrocortizone (Sigma Aldrich, USA). Human U937 monocyte cells were purchased from ATCC (Manassas, Va., USA) and cultured in suspension in growth medium composed of RPMI 1640 (Fisherbrand, USA) supplemented with 2 mM L-Glutamine (Invitrogen), 10 mM HEPES (Fisherbrand, USA), 10% FBS (Fisherbrand), antimycotic/antibiotic mixture (Life Technologies, USA), 1 mM sodium pyruvate (Life Technologies, USA) and 4.5 mg/mL glucose (Sigma Aldrich, USA).
After 30 min of monocyte-EC interaction at 37° C., monocyte suspension was removed and the EC monolayers gently rinsed twice with PBS (to remove unbound monocytes) prior to fixation in 1% paraformaldehyde (PFA; Electron Microscopy Sciences, USA). Fluorescent images (10 per condition) of labeled U937 cells were then acquired using a Nikon Eclipse Ti microscope (Nikon, Japan) fitted with a Nikon Digital Sight DS-Qi1Mc camera and the number of adherent monocytes was counted using ImageJ software (NIH).

[3] = system: endothelial NO production; test: Intracellular NO by DAF-FM diacetate fluorescence; assay type: cell-based, human; settings: NTG 5 μM
Procedure: (§1) Two independent methods were used to measure the amount of NO produced by ECs. In the first method, ECs were treated overnight with L-NIO (5 mM)±NTG (5 μM) or NTG-NL (10 μg/mL), followed by incubation with a NO-sensitive fluorescent dye DAF-FM diacetate (2 μM; Life Technologies, USA) for 20 minutes at 37° C. Following dye loading, ECs were again treated with L-NIO and NTG during a recovery phase for an additional 1 h in regular growth medium. EC culture media was then rinsed once with Krebs-Henseleit Buffer (KHB) containing 125 mM NaCl, 4.74 mM KCl, 2.5 mM CaCl2, 1.2 mM KH2PO4 1.2 mM MgSO4, 5 mM NaHCO3 and 10 mM Glucose (Sigma Aldrich, USA), replaced with fresh KHB and immediately subjected to live cell fluorescence imaging using Nikon Eclipse Ti microscope. At least 30 cells per condition were analyzed for total cell fluorescence using ImageJ software (NIH). For the second method, a Nitric Oxide Analyzer (NOA; Sievers, USA) was used to measure EC-secreted NO in culture medium. For this measurement, confluent ECs were treated overnight with either L-NIO (5 mM)±NTG (5 μM) or NTG alone, followed by sequential 1 h incubations with KHB without and with L-NIO±NTG at 37° C. KHB conditioned medium (4 replicates per condition) was then collected and analyzed using NOA.

[4] = system: isolated sheep pulmonary arteries; test: Pulmonary artery ring isometric tension: NTG-induced vasorelaxation after pretreatment
Procedure: All animal procedures were in accordance with the Animal Welfare Act, the Guiding Principles in the Care and Use of Animals approved by the Council of the American Physiological Society, the National Institutes of Health Guide for the Care and Use of Laboratory Animals, and Loma Linda University Institutional Animal Care and Use Committee (IACUC). Pregnant ewes were anesthetized with ketamine (10 mg/kg, IV) and midazolam (5 mg/kg, IV) and anesthesia maintained with inhalation of 1-3% isofluranein O2 throughout surgery as required. Ewes and Fetuses were euthanized with an overdose of Euthasol (pentobarbital sodium, 100 mg/kg) and phenytoin sodium (10 mg/kg; Virbac, Ft. Worth, Tex.).
To assess arterial vasorelaxation in response to NTG treatment, pulmonary arteries (4th-5th order) were harvested from newborn fetal sheep (gestational period between 138-141 days), dissected free of parenchyma and cut into 5 mm long rings (at least 8 per condition) in ice-cold HEPES buffer (Sigma Aldrich, USA). […] Following treatment, rings were mounted onto tungsten wires under 0.5 g of resting tension in organ baths containing KHB, gassed with 95% O2-5% CO2, and maintained at 37° C. Arterial rings were rinsed once with KHB, allowed to equilibrate for at least 30 minutes, and re-tensioned prior to addition of 125 mM KCl (Sigma Aldrich, USA) to ensure rings were still functional. Rings were rinsed three times to remove KCl, allowed to relax, and preconstricted with 10 μM Serotonin (Tocris Bioscience, USA) to achieve 100% contraction. Rings were then exposed to increasing concentrations of free NTG (1 nM to 100 μM) and subsequent recordings of concentration-response curves were acquired using a force displacement transducer (AD Instruments, New Zealand) and analyzed using Prism (Graphpad Software Inc).

[5] = system: endothelial NO production; test: EC-secreted (extracellular) NO by Nitric Oxide Analyzer (NOA); assay type: cell-based, human; settings: NTG 5 μM, L-NIO-treated ECs
Procedure: as §1

[6] = in vivo; cited from earlier work
[7] = system: endothelial mitochondrial superoxide; test: Endothelial mitochondrial superoxide production (MitoSOX); assay type: cell-based, human; settings: free NTG 100 μM (20-fold above effective dose), L-NIO-treated ECs
Procedure: ECs were plated at sub-confluence on gelatin-coated MatTek dishes under normal culture conditions and subjected to overnight treatment with either L-NIO (3 mM)±[NTG (5, 25, or 100 μM) or NTG-NL (5, 50 or 100 μg/mL)]. To detect mitochondrial superoxide, ECs were labeled with MitoSOX™ (Life Technologies, USA), a mitochondrial superoxide-sensitive fluorescent dye that is widely used to measure mitochondrial ROS production under various conditions, including NTG treatment. ECs were labeled with MitoSOX™ Red at a final dose of 5 μM in KHB for 10 minutes at 37° C., rinsed three times with KHB to remove excess dye and placed at 37° C. in KHB for an additional 10 minutes prior to live cell imaging. Fluorescence images (six per condition) were acquired using Nikon Eclipse Ti microscope and total cell fluorescence intensity from at least 20 cells was analyzed using ImageJ software.

Question: With `O=[N+]([O-])OCC(CO[N+](=O)[O-])O[N+](=O)[O-]` [NTG, Nitroglycerin] as the compound, how does the “effect on ICAM-1 clustering induced by L-NIO” value [1] read?
Answer: Its value is “inhibited”.

Question: And the “effect on U937 monocytic cell adhesion to ECs” value [2]?
Answer: Its value is “dose-dependent inhibition”.

Question: And the EC50 ([2]; Homo sapiens, U-937, read-out: EC50, inhibition of human monocyte adhesion to NO-deficient human microvascular ECs)?
Answer: Its EC50 is 0.64 µM.

Question: What about the “effective anti-inflammatory NTG dose” value ([2]; L-NIO-treated ECs, adhesion back to level of untreated ECs) of the same compound?
Answer: The value was 5 µM.

Question: And the “U937 cell-EC adhesion after 4 hr treatment” value ([2]; NTG 5 μM)?
Answer: Its value is “significant inhibition of U937 cell-EC adhesion”.

Question: And the “U937 cell-EC adhesion after 4 hr treatment” value ([2]; free NTG 100 μM)?
Answer: The value was “loses its therapeutic effect”.

Question: What about the “loss (decrease) in anti-inflammatory effect at high dose” value ([2]; free NTG 100 μM, L-NIO-treated ECs) of the same compound?
Answer: Its value is about 2 fold.

Question: And the “anti-inflammatory effect of free NTG at the amount equivalent to NTG-NL” value ([2]; listed as Free NTG)?
Answer: The value was “does not produce a significant anti-inflammatory effect”.

Question: And the “anti-inflammatory effect of free NTG at the amount equivalent to NTG-NL” value ([2]; listed as free NTG)?
Answer: The value was “failed to produce a significant anti-inflammatory effect”.

Question: And the “recovery of intracellular NO in L-NIO-treated cells” value [3]?
Answer: Its value is 79%.

Question: And the IC50 ([4]; Ovis aries, read-out: Mean IC50 of NTG-induced relaxation, arteries pretreated 4 h with free NTG 5 μM)?
Answer: Its IC50 is 0.25 µM.

Question: And the IC50 ([4]; Ovis aries, read-out: Mean IC50 of NTG-induced relaxation, arteries pretreated 4 h with free NTG 100 μM)?
Answer: Its IC50 is 15 µM.

Question: What about the IC50 ([4]; Ovis aries, read-out: −Log IC50 of NTG-induced relaxation, arteries pretreated 4 h with free NTG 5 μM (converted), mean ± SEM) of the same compound?
Answer: Its IC50 is 0.251 µM.

Question: And the IC50 ([4]; Ovis aries, read-out: −Log IC50 of NTG-induced relaxation, arteries pretreated 4 h with free NTG 100 μM (converted), mean ± SEM)?
Answer: The IC50 was 15.5 µM.

Question: What about the “Maximal Relaxation (%)” value ([4]; arteries pretreated 4 h with free NTG 5 μM, mean ± SEM) of the same compound?
Answer: Its value is 69 ± 4 %.

Question: And the “Maximal Relaxation (%)” value ([4]; arteries pretreated 4 h with free NTG 100 μM, mean ± SEM)?
Answer: The value was 66 ± 9%.

Question: What about the IC50 ([4]; read-out: Mean IC50 of NTG-induced relaxation, arteries pretreated 4 h with free NTG 100 μM) of the same compound?
Answer: The IC50 was 15.5 µM.

Question: And the “recovery of EC-dependent (extracellular) NO production” value [5]?
Answer: Its value is “complete recovery”.

Question: What about the “time of clearance of NTG from bloodstream” value [6] of the same compound?
Answer: The value was 15 to 30 min.

Question: And the “increase in mitochondrial superoxide formation” value [7]?
Answer: Its value is 2 fold.
